Measured values taken from patent US12590950B2, “Methods for predicting ER-mediated DNA damage” (UNIVERSITY OF MASSACHUSETTS, priority 2019, dated 2026).

Experiments:
[1] = system: MCF-7 cells; experiment: γH2AX immunostaining (DNA damage) in MCF-7 cells; type: cell-based, human; settings: E2 10-100 nM, BP3 1-30 μM, PP 1-30 μM
Description: Immunostaining: Cells were grown in clearing media for 48 h and plated on 20 mm coverslip in 12 well plates with a density of 2×10^5 cells/well. […] Cells were washed with 1×PBS, blocked in 2% BSA/PBS with 0.1% Triton-X 100 for 1 hr at room temperature (RT), incubated overnight with γH2AX antibody (Cell Signaling #9718 S) or ERα antibody (Santa Cruz Biotechnology #sc-8002) at 4° C. and 1 hour with secondary antibody. S9.6: Cells were fixed in ice-cold 100% methanol for 10 min at −20° C., permeabilized in 100% acetone for 1 min at RT, blocked for 30 min in saline sodium citrate pH 7 (SSC, 4×), 3% BSA, 0.1% Triton-X and incubated with S9.6 (Kerafast #ENH001) 2 hr at RT followed by 1 h with secondary antibody. If indicated, slides were treated with RNase H (NEB #M0297L) for 4 hr at 37° C. prior to incubation with primary antibody. Stained cells were mounted with Vectashield mounting medium containing DAPI (Vector Laboratories #H-1200). Slides were imaged at 60× (immersion oil) with Nikon A1 Spectral Confocal microscope. Analysis of γH2AX and S9.6 intensity per nucleus or foci per nucleus was calculated using Nikon analysis software, where DAPI was used as a mask for the nucleus.

[2] = system: mammary epithelium; experiment: Acute oral exposure of ovariectomized mice: nuclear S9.6 staining of mammary epithelium; type: in vivo, mouse; settings: 4 days, E2 250, BP3 3,000, PP 10,000 μg/kg/day
Text: Animal Treatment: Forty mature female mice (8 weeks old) BALB/c mice were purchased from Jackson Laboratory and housed in temperature-controlled facilities with a 12-hour alternating day/night light cycle and fed LabChow 5058 ad libitum. All procedures were in accordance with the national guidelines for the care and use of animals and approved by the University of Massachusetts Amherst's Institutional Animal Care and Use Committee.
The mice were ovariectomized before treatment. Briefly, each mouse was anaesthetized with a mix of isofluorance and oxygen. The flanks were shaved, sterilized with betadine and cleaned with alcohol. An incision was made to the skin on the right flank. The underlying muscle layer was nicked to reveal a small hole through which ovary was pulled out by grasping the periovarian fat. A Serrifin clamp was used to hold the ovary. After making sure the blood vessels were constricted to prevent […], the ovary was cut from the uterine horn. The periovarian fat was restored into the peritoneum. The peritoneum was closed with one or two stiches and the skin was closed with 9 mm wound clips. The procedure was repeated on the contralateral side. The mouse was monitored for a week post-procedure and wound clips were removed after 10 days. After 1 week of recovery, the mice began an acute oral treatment via pipette with one of three different compounds prepared in tocopherol-stripped corn oil for 4 days. Each mouse was administered 1 μL of oil per gram of body weight to deliver 250 μg/kg/d E2, 3000 μg/kg/d BP3 or 10000 μg/kg/d PP or vehicle control. […]
Immunostaining of mouse mammary gland: Freshly cut […] paraffin-embedded sections were deparaffinized/rehydrated with 100% xylenes 3 times for 5 min each, 2 times with 100% ethanol for 5 min each, 95% ethanol for 3 min and 70% ethanol for 3 min. […] Analysis of S9.6 intensity per nucleus or foci per nucleus were calculated using Nikon analysis software, where DAPI was used as a mask for the nucleus. […] Positive cells were counted using ImageJ software. 1200 cells were counted to determine percent Ki67 positive.

[3] = system: TFF1; experiment: RT-qPCR of estrogen-responsive gene TFF1 in T47D cells; type: cell-based, human; settings: T47D; for expression of TFF1 vs control: 5 μM
Description: RT-qPCR: RNA from T47D cells, MCF-7 Cells or flash-frozen 4th mammary gland was isolated with TRIzol (Thermofisher Scientific #15596018) and Direct-zol RNA MiniPrep Plus (Zymo Research #R2072). cDNA was prepared with Protoscript II First Strand cDNA Synthesis Kit (New England Biolabs #E6560S) and qPCR for TFF1, progesterone receptor (PGR) and Amphiregulin (AREG) was performed on CFX96 Real-Time System thermocycler (Bio-Rad) using primers in Table 1.

[4] = system: MCF-7 cells; experiment: 53BP1 immunostaining in MCF-7 cells; type: cell-based, human; settings: E2 10-100 nM, BP3 1-5 μM, PP 1-5 μM

Structure (SMILES)	nuclear γH2AX intensity [1]	nuclear S9.6 staining in mammary epithelium over control treated animals [2]	expression of TFF1 vs control [3]	53BP1 nuclear intensity [4]	increase in expression of TFF1 ([3]; 10 nM)
CCCOC(=O)c1ccc(O)cc1 [PP, propyl parahydroxybenzoate]	dose-dependent increase in nuclear γH2AX intensity	3.8 fold	did not differ from the control	dose-dependent increases in 53BP1 nuclear intensity	
COc1ccc(C(=O)c2ccccc2)c(O)c1 [BP3, 2-Hydroxy-4-methoxybenzophenone]	dose-dependent increase in nuclear γH2AX intensity	2.5 fold	did not differ from the control	dose-dependent increase	
C[C@]12CC[C@@H]3c4ccc(O)cc4CC[C@H]3[C@@H]1CC[C@@H]2O [E2, 17β-estradiol, reference compound]	dose-dependent increase in nuclear γH2AX intensity	3.8 fold		dose-dependent increases in 53BP1 nuclear intensity	13.1 fold
